Consider one compound from article PMC10447267, “Assessment of the potential of the MET inhibitor tepotinib to affect the pharmacokinetics of CYP3A4 and P-gp substrates” (Investigational New Drugs, 2023).

As usually defined, the IC50 is the point on the concentration scale where inhibition reaches its midpoint. A word on the inhibition: it is the share of the control response that was lost under treatment.

What all share (format): in vitro ADME
One data set concerns the target P-gp (Homo sapiens, UniProt P08183). Put plainly: P-gp inhibition in Caco-2 cell monolayers with [3H]-digoxin. Also noted: An in vitro assay in Caco-2 cell monolayers; endogenous in cells; host or cells: Caco-2. Here is the method:
An in vitro assay in Caco-2 cell monolayers was performed to assess the P-gp inhibition potential of tepotinib (Online Resource 4). [^3H]-digoxin was used as a P-gp probe substrate. Control experiments were conducted to ensure acceptable performance of the cells. The extent of inhibition in these studies, expressed as IC50, was determined by quantification of the transport or uptake of ^3H-digoxin in Caco-2 cells in the absence and presence of tepotinib.
To assess the potential clinical risk and to identify whether an in vivo DDI study was required, drug concentration ([I])/IC50 ratios and/or R-values were calculated considering the mean human steady state exposure of parent drug and its metabolite, observed at the clinical dose of 500 mg tepotinib. Results were assessed according to both FDA and EMA criteria.

The subject of data set [1] is CYP2B6. Put plainly: CYP2B6 activity induction in primary human hepatocyte cultures. As to conditions: enzyme activity quantification. Here is the method:
In vitro studies in primary human hepatocyte cultures were conducted to assess the potential of tepotinib to induce human CYP1A1/2, 2B6 and 3A4/5 activity, the latter based on testosterone 6β-hydroxylation reactions (Online Resource 2). […] The studies included positive (rifampin) and vehicle (DMSO) controls. A negative control (flumazenil) was also included in the mRNA studies. The study designs, test systems and selection of prototypical inducers used in these studies were consistent with PhRMA, FDA and EMA guidelines.

In data set [2] the target is T1, CYP2B6 (Homo sapiens, UniProt P20813).
T1 construct: pooled mixed-gender human liver microsomes; from tissue; host or cells: pooled mixed-gender human liver microsomes
T1 sequence (P20813 1-491): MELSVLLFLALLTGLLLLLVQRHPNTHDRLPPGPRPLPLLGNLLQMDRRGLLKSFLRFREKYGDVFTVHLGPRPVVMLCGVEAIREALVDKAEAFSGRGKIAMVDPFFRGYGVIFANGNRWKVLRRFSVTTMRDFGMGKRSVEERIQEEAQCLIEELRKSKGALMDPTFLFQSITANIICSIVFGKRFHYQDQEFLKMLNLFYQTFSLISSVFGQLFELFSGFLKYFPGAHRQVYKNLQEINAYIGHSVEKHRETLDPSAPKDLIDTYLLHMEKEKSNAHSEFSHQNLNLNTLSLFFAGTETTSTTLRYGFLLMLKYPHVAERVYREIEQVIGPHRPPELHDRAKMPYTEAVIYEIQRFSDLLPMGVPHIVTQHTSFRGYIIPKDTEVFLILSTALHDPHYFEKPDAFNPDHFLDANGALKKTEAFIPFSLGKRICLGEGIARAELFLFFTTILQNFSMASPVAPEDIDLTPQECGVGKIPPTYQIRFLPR
Put plainly: CYP2B6 inhibition in pooled human liver microsomes. As to conditions: Efavirenz 8-hydroxylation; for inhibition at 49.5 µM: both sexes, human, pooled human liver microsomes, probe efavirenz. Here is the method: (§1) The potential of tepotinib and MSC2571109A to inhibit CYP450 enzymes CYP1A2, 2A6, 2B6, 2C8, 2C9, 2C19, 2D6, 2E1, and 3A4/5 in vitro was evaluated using CYP-catalyzed reactions in pooled mixed-gender human liver microsomes using specific substrates and liquid chromatography/tandem mass spectrometry (LC–MS/MS) readouts. […] Testosterone 6β-hydroxylation was assessed in the MSC2571109A study. Assessments of mechanism-based inhibition of the above listed CYP450 enzymes were conducted after pre-incubation of the microsomes with tepotinib or MSC2571109A. A brief summary of the incubation methods, including details of substrates used for the other CYP enzymes (which are not pertinent to this article) are presented in Online Resource 1. The LC–MS/MS-based methods used were consistent with those previously described in the literature.
Background: Microsomes from liver hold many membrane-bound enzymes, among them those of drug oxidation.

In another data set the target is T2, CYP2D6 (Homo sapiens, UniProt P10635).
T2 construct: pooled mixed-gender human liver microsomes; from tissue; host or cells: pooled mixed-gender human liver microsomes
T2 sequence (P10635 whole entry): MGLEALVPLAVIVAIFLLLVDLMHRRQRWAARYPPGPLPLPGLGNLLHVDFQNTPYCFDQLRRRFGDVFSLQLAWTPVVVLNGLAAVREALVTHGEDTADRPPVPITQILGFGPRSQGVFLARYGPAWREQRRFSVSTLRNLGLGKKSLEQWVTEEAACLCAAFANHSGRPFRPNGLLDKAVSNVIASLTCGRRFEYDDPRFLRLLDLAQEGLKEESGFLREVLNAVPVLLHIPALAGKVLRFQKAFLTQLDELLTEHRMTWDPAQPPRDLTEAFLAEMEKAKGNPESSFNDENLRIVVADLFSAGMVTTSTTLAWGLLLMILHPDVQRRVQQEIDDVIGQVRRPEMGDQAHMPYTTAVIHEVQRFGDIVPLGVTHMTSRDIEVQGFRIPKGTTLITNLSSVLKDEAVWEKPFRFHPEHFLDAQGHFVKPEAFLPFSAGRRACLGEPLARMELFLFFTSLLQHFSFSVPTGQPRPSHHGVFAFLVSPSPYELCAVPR
Put plainly: biochemical. As to conditions: for inhibition at 49.5 µM: both sexes, human, microsomes. The protocol: as §1

The next data set addresses T3, CYP2E1 (Homo sapiens, UniProt P05181).
T3 construct: pooled mixed-gender human liver microsomes; from tissue; host or cells: pooled mixed-gender human liver microsomes
Put plainly: biochemical. To be noted: for inhibition at 49.5 µM: both sexes, human, microsomes. The protocol: as §1

The target in another data set is T4, CYP2A6 (Homo sapiens, UniProt P11509).
T4 construct: pooled mixed-gender human liver microsomes; from tissue; host or cells: pooled mixed-gender human liver microsomes
T4 sequence (P11509 1-494): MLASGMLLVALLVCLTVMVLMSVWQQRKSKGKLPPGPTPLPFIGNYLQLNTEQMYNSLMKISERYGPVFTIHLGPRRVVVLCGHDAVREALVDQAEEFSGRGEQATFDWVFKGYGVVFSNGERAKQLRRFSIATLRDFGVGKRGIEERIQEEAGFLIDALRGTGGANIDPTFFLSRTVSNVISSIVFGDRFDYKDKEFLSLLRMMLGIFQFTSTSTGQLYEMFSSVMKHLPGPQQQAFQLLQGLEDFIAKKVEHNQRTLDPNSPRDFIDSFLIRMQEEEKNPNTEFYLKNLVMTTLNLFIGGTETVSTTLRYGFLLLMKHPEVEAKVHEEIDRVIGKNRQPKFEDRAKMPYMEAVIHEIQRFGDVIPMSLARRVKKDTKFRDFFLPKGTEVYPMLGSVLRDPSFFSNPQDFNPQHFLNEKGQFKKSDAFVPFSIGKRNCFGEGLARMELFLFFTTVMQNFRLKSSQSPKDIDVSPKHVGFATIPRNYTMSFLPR
Put plainly: CYP2A6 inhibition in pooled human liver microsomes. As to conditions: Coumarin 7-hydroxylation; for inhibition at 49.5 µM: both sexes, human, pooled human liver microsomes, probe coumarin. The protocol: as §1

Setting [3] is: P-gp, clinical dose of 500 mg once daily.
Where [4] appears, read: 30-min preincubation, read-out: Time-dependent inhibition IC50.
Setting [5] is: 30-min preincubation, read-out: Time-dependent inhibition, maximum inhibition at 49.5 µM.
The mark [6] stands for this setting: zero-minute preincubation, read-out: Direct inhibition, maximum inhibition at 49.5 µM.
Where [7] appears, read: human liver microsomes, zero-minute preincubation, read-out: Direct inhibition IC50.

Where two headings read alike, the source gives them in different places.

T3 sequence (P05181 whole entry): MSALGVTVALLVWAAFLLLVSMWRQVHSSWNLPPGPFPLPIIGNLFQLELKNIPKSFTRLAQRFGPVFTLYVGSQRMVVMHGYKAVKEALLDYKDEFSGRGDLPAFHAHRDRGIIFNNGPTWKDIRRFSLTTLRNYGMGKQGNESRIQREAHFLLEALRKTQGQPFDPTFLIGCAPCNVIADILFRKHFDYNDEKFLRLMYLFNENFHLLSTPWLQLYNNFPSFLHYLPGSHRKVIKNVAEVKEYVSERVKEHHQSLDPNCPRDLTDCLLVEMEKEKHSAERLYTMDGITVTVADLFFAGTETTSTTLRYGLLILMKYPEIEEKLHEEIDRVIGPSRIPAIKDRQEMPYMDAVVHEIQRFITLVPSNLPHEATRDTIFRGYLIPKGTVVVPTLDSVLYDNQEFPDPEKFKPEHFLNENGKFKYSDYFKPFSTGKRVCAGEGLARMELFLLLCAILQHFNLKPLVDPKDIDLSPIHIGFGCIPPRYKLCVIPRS
P-gp, sequence (P08183 whole entry): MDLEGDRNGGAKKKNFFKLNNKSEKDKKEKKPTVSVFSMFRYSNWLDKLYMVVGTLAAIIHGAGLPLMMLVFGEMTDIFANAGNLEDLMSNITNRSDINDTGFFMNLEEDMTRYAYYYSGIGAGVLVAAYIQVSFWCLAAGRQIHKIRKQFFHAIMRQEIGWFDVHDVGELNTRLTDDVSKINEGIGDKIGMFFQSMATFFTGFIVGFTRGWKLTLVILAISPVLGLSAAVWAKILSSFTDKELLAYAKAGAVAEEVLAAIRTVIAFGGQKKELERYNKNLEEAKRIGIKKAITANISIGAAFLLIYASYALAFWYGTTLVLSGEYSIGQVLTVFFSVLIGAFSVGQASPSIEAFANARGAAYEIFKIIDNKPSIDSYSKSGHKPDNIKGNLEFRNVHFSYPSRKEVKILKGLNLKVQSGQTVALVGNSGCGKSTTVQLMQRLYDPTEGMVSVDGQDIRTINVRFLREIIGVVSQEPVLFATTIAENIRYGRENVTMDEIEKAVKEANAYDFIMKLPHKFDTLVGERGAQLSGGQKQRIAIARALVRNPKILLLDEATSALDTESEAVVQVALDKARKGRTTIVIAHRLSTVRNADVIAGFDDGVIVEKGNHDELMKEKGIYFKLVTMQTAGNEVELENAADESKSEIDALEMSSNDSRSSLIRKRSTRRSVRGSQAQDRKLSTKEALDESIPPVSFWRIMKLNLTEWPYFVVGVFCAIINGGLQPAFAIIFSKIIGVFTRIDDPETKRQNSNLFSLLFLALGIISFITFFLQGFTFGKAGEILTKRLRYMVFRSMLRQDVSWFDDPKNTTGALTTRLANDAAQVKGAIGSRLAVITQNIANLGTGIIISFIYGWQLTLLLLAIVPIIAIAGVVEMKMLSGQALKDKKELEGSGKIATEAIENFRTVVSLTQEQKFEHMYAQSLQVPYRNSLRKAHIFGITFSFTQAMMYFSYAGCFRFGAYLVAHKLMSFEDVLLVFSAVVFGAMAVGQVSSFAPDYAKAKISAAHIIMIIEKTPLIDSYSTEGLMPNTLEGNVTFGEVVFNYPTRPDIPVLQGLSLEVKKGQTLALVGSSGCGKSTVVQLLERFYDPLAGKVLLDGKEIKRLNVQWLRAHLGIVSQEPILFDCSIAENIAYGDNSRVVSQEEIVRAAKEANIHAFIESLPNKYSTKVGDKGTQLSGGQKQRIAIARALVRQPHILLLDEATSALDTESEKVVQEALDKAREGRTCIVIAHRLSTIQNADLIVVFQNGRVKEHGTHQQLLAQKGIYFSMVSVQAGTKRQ

Take `CN1CCC(COc2cnc(-c3cccc(Cn4nc(-c5cccc(C#N)c5)ccc4=O)c3)nc2)CC1` [tepotinib]: the IC50 on P-gp (Caco-2 cell monolayers, [3H]-digoxin probe substrate, read-out: Apparent IC50, P-gp inhibition) is 0.41 µM; on CYP2B6 [2] (setting [4]), 44 µM; on CYP2B6 [2] (setting [7]), > 49.5 µM; against CYP2D6, > 49.5 µM; at CYP2D6 (read-out: Time-dependent inhibition IC50, Dextromethorphan O-demethylation, 30-min preincubation), > 49.5 µM; at CYP2E1 it was > 49.5 µM. For the same compound, the half-maximal inhibitory concentration (IC50) at CYP2E1 (read-out: Time-dependent inhibition IC50, Chlorzoxazone 6-hydroxylation, 30-min preincubation) is > 49.5 µM; on CYP2A6 (setting [4]), 39 µM; on CYP2A6 (setting [7]), > 49.5 µM. The “[I]/IC50 ratio (intestinal)” value on P-gp (setting [3]) stood at 8917. Also, on P-gp (setting [3]), the “[I]/IC50 ratio (systemic)” value was determined as 0.39. For the same compound, the “Induction of CYP2B6 activity” value in the data set with CYP2B6 [1] is recorded as “less than 40 % of positive control”. Besides, the “Potential for time-dependent inhibition” value at CYP2B6 [2], on CYP2D6 (Dextromethorphan O-demethylation), at CYP2E1 (Chlorzoxazone 6-hydroxylation) and on CYP2A6 was “Little or No” in each case. For the same compound, the inhibition at 49.5 µM at CYP2B6 [2] (setting [5]) was 52%; at CYP2B6 [2] (setting [6]), 34%; on CYP2D6 (Dextromethorphan O-demethylation, 30-min preincubation, read-out: Time-dependent inhibition, maximum inhibition at 49.5 µM), 24%; on CYP2D6 (Dextromethorphan O-demethylation, zero-minute preincubation, read-out: Direct inhibition, maximum inhibition at 49.5 µM) it was 50%; on CYP2E1 (Chlorzoxazone 6-hydroxylation, 30-min preincubation, read-out: Time-dependent inhibition, maximum inhibition at 49.5 µM) it was 17%; at CYP2E1 (Chlorzoxazone 6-hydroxylation, zero-minute preincubation, read-out: Direct inhibition, maximum inhibition at 49.5 µM), 19%. Also, the inhibition at 49.5 µM worked out at 52% at CYP2A6 (setting [5]) and 51% at CYP2A6 (setting [6]).
